pIC50: −log10 of the molar value.
What was measured:
[1] = Half life of the compound in water; type: physicochemical
[2] = Drug metabolism in PBS buffer assessed as compound hydrolysis; type: physicochemical
[3] = Drug metabolism in 0.9% NaCl assessed as compound hydrolysis; type: physicochemical
[4] = molecular target: Gastrin-releasing peptide receptor (Homo sapiens, UniProt P30550); assay: Displacement of [125I]-Tyr4-bombesin from GRP receptor in human PC3 cells after 1 hr by gamma-counting analysis; type: cell-based, PC-3
Sequence of Gastrin-releasing peptide receptor (P30550 whole entry): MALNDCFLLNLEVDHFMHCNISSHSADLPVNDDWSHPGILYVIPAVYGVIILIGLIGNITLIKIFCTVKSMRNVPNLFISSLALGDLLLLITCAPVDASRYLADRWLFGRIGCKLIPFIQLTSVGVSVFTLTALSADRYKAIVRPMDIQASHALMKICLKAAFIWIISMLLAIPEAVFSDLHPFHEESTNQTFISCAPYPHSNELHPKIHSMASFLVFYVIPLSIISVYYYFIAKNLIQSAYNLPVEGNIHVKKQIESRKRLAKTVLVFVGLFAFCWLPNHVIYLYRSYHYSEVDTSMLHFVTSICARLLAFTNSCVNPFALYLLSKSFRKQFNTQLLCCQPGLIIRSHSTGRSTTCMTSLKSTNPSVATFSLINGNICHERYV

half-life [1]	Drug metabolism [2]	Drug metabolism [3]	pIC50 [4]	Structure (SMILES)
> 300 h				CC(C)(C)[Si](F)(c1ccc(CC(=O)NCc2ccccc2)cc1)C(C)(C)C
8 h	Active	Active		CC(C)(C)[Si]([18F])(CCO)C(C)(C)C
			8.08	CC(C)C[C@H](NC(=O)C[C@H](O)[C@H](CC(C)C)NC(=O)[C@H](Cc1cnc[nH]1)NC(=O)CN(C)C(=O)[C@@H](NC(=O)[C@H](C)NC(=O)[C@H](Cc1c[nH]c2ccccc12)NC(=O)[C@H](CCC(N)=O)NC(=O)CCCCNC(=O)[C@H](CS(=O)(=O)O)NC(=O)[C@H](CS(=O)(=O)O)NC(=O)Cc1ccc([Si](F)(C(C)(C)C)C(C)(C)C)cc1)C(C)C)C(N)=O

From ChEMBL document CHEMBL2429805, “Studies toward the development of new silicon-containing building blocks for the direct (18)F-labeling of peptides” (J Med Chem, 2013)
